Where two headings read alike, the source gives them in different places.
Experiments:
Assay type in all cases: cell-based
[1] = biological target: T1, CDK2-NanoLuc fusion with CCNE1 in 293T or 293 cells (Homo sapiens, UniProt P24941); experiment: NanoBRET Target Engagement (TE) Intracellular Kinase Assay, CDK2/CCNE1; settings: NanoBRET TE intracellular kinase assay, 2-hour incubation, read-out: NanoBRET-CDK2/E1 IC50
T1 construct: host or cells: 293T (ATCC CRL-3216) or 293 (ATCC CRL-1573)
Method: (§1) Inhibitory effects of compounds were measured in NanoBRET TE Intracellular Kinase Assay. […] Cells were co-transfected with 1 μg/mL of CDK-NanoLuc Fusion Vector (Promega; NV2701 for CDK1, NV2781 for CDK2, NV2811 for CDK4, NV2841 for CDK6) and 1 μg/mL of the corresponding Cyclin Expression Vector (Promega; NV2601 for CCNB1, NV2641 for CCNE1, NV2621 for CCND1, NV2631 for CCND3) using FuGENE HD Transfection Reagent (Promega; E2311). […] 20 uL/well of 3× Intracellular TE Nano-Glo Substrate/Inhibitor (Promega; N2162) were added to 384-well plates and incubated for 3 minutes at room temperature. NanoBRET signals (donor emission wavelength at 450 nm, acceptor emission wavelength at 610 nm) were measured using Envision plate reader (PerkinElmer). NanoBRET ratio was calculated by: BRET Ratio=raw signal for acceptor/raw signal for donor. Dose response curve normalized to DMSO control was plotted using four-parameter logistic model for IC50 calculation.

[2] = biological target: T2, CDK4-NanoLuc fusion with CCND1 in 293T or 293 cells (Homo sapiens, UniProt P11802); experiment: NanoBRET Target Engagement (TE) Intracellular Kinase Assay, CDK4/CCND1; settings: NanoBRET TE intracellular kinase assay, 2-hour incubation, read-out: NanoBRET-CDK4/D1 IC50
T2 construct: host or cells: 293T (ATCC CRL-3216) or 293 (ATCC CRL-1573)
T2 sequence (P11802 whole entry, the tested form may be a part): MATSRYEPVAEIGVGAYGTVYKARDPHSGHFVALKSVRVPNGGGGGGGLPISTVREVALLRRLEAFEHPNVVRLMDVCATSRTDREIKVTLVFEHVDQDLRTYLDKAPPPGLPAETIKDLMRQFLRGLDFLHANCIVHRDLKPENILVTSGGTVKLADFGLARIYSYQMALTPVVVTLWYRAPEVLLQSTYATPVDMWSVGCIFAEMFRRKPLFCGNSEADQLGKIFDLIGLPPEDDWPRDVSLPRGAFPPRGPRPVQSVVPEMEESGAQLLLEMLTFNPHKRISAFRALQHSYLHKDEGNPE
T2 sequence (P24385 whole entry partner, the tested form may be a part): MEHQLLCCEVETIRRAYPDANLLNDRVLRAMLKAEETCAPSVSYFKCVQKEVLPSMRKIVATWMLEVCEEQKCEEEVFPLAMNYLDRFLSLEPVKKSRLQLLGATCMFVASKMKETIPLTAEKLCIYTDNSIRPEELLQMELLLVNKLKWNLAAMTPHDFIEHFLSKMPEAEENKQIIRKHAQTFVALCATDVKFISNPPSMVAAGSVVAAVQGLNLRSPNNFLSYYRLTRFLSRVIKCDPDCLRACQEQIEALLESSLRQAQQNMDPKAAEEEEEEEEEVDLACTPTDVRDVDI
Method: as §1

[3] = tested on: Phospho-Rb Ser807/811 in OVCAR3 cells; experiment: OVCAR3 Phospho-Rb Ser807/811 HTRF assay; settings: OVCAR3 cells, Phospho-Rb Ser807/811 HTRF, 1 hour incubation, read-out: pRb-OVCAR3 IC50
Method: Cells were trypsinized and resuspended in 1 mM hydroxyurea (Sigma; H8627), 90% RPMI and 10% fetal bovine serum. […] Dose response curve normalized to DMSO control was plotted using four-parameter logistic model for IC50 calculation.

SMILES | IC50 [1] [nM] | IC50 [2] [nM] | IC50 [3] [nM] | IC50 ([3]; Homo sapiens, OVCAR-3, 1 h) [nM]
COc1cc(O)c(C=O)c(OCC(=O)Nc2cc([C@H]3CC[C@@H](OC(=O)NC(C)(C)C#N)C3)[nH]n2)c1 [Compound 159] | 10.6 | 4840 |  | 43.1
COc1cc(O)c(C=O)c(OCC(=O)Nc2cc([C@H]3CC[C@@H](OC(=O)NCCOC(F)F)C3)n[nH]2)c1 [Compound 116] | 4.5 | 4360 |  | 32.3
COc1cc(O)c(C=O)c(OCC(=O)Nc2cc([C@H]3CC[C@@H](OC(=O)N4CCC[C@H](C#N)C4)C3)[nH]n2)c1 [Compound 131, (1R,3S)-3-{5-[2-(2-formyl-3-hydroxy-5-methoxyphenoxy)acetamido]-2H-pyrazol-3-yl}cyclopentyl (3S)-3-cyanopiperidine-1-carboxylate] | 3.25 | 697 |  | 12.5
COc1cc(O)c(C=O)c(OCC(=O)Nc2cc([C@H]3CC[C@@H](OC(=O)NC4(CC#N)CC4)C3)[nH]n2)c1 [Compound 146] | 9.88 | 2380 |  | 40.9
COc1cc(O)c(C=O)c(OCC(=O)Nc2cc([C@H]3CC[C@@H](OC(=O)N4C[C@@H](F)[C@H](F)C4)C3)n[nH]2)c1 [Compound 124] | 1.99 | 2580 |  | 37.7
COc1cc(O)c(C=O)c(OCC(=O)Nc2cc([C@H]3CC[C@@H](OC(=O)NCCOC(F)(F)F)C3)n[nH]2)c1 [Compound 117] | 2.19 | 8090 |  | 22
C#CCN(CC)C(=O)O[C@@H]1CC[C@H](c2cc(NC(=O)COc3cc(OC)cc(O)c3C=O)n[nH]2)C1 [Compound 144] | 2.36 | 2340 |  | 29
COc1cc(O)c(C=O)c(OCC(=O)Nc2cc([C@H]3CC[C@@H](OC(=O)NC4COC4)C3)[nH]n2)c1 [Compound 149] | 20.2 | > 10000 |  | 385
COc1cc(O)c(C=O)c(OCC(=O)Nc2cc([C@H]3CC[C@@H](OC(=O)N4C[C@@H]5CC[C@H]4CO5)C3)[nH]n2)c1 [Compound 157] | 6.79 | 7000 |  | 70
COc1cc(O)c(C=O)c(OCC(=O)Nc2cc([C@H]3CC[C@@H](OC(=O)N(C)CCC#N)C3)[nH]n2)c1 [Compound 155] | 7.65 | 6300 |  | 23.5
COc1cc(O)c(C=O)c(OCC(=O)Nc2cc([C@H]3CC[C@@H](OC(=O)N4[C@@H]5CC[C@H]4C[C@H](C#N)C5)C3)[nH]n2)c1 [Compound 154] | 7.73 | 2100 |  | 27.8
COc1cc(O)c(C=O)c(O[C@H](C)C(=O)Nc2cc([C@H]3C[C@@H](OC(=O)N4C5COCC4C5)C3)[nH]n2)c1 [Compound 193] | 11.6 | > 10000 |  | 84.7
COc1cc(O)c(C=O)c(OCC(=O)Nc2cc([C@H]3CC[C@@H](OC(=O)N4CC(F)(F)C4)C3)[nH]n2)c1 [Compound 129] | 1.96 | 7620 |  | 44.5
O=Cc1c(O)cc(F)cc1OCC(=O)Nc1cc([C@H]2CC[C@@H](OC(=O)N3C4COCC3C4)C2)[nH]n1 [Compound 192] | 24 | 5910 |  | 88
Cc1cc(O)c(C=O)c(OCC(=O)Nc2cc([C@H]3CC[C@@H](OC(=O)N4C5CCC4CC5)C3)[nH]n2)c1 [Compound 161] | 2.79 | 7360 |  | 68.6
COc1cc(O)c(C=O)c(OCC(=O)Nc2cc([C@H]3CC[C@@H](OC(=O)N4CC(C#N)C4)C3)[nH]n2)c1 [Compound 153] | 13.1 | > 10000 |  | 49.7

The remaining lines, values ahead:

IC50 [1] [nM] | IC50 [2] [nM] | IC50 [3] [nM] | IC50 ([3]; Homo sapiens, OVCAR-3, 1 h) [nM] | SMILES
67.7 | 459 | 2230 |  | COc1cc(O)c(C=O)c2c1CC(C(=O)Nc1cc([C@H]3CC[C@@H](OC(=O)NN(C)C)C3)n[nH]1)C2 (single isomer, unassigned) [Compound 269, (1R,3S)-3-(3-((*)-4-formyl-5-hydroxy-7-methoxy-2,3-dihydro-1H-indene-2-carboxamido)-1H-pyrazol-5-yl)cyclopentyl 2,2-dimethylhydrazine-1-carboxylate]
18.4 | > 10000 |  | 65.3 | COc1cc(O)c(C=O)c(OCC(=O)Nc2cc([C@H]3CC[C@@H](OC(=O)N4CC(N(C)C)C4)C3)[nH]n2)c1 [Compound 187]
3.88 | 576 |  | 17.4 | COc1cc(O)c(C=O)c(OCC(=O)Nc2cc([C@H]3CC[C@@H](OC(=O)NC4(C)CC4(F)F)C3)[nH]n2)c1 (single isomer, unassigned) [Compound 280, (1R,3S)-3-(3-(2-(2-formyl-3-hydroxy-5-methoxyphenoxy)acetamido)-1H-pyrazol-5-yl)cyclopentyl ((*)-2,2-difluoro-1-methylcyclopropyl)carbamate]
2.8 | 828 |  | 24.3 | COc1cc(O)c(C=O)c(OCC(=O)Nc2cc([C@H]3CC[C@@H](OC(=O)N[C@@H](C)CC(F)(F)F)C3)[nH]n2)c1 [Compound 167]
4.42 | 5080 | 51.8 |  | COc1cc(O)c(C=O)c2c1CC(C(=O)Nc1cc([C@H]3CC[C@@H](OC(=O)N4CCCN4C)C3)[nH]n1)C2 (single isomer, unassigned) [Compound 262, (1R,3S)-3-(3-((*)-4-formyl-5-hydroxy-7-methoxy-2,3-dihydro-1H-indene-2-carboxamido)-1H-pyrazol-5-yl)cyclopentyl 2-methylpyrazolidine-1-carboxylate]
4.1 | > 10000 |  | 95.9 | COc1cc(O)c(C=O)c(OCC(=O)Nc2cc([C@H]3CC[C@@H](OC(=O)N4CCCN4C)C3)[nH]n2)c1 [Compound 278, (1R,3S)-3-(3-(2-(2-formyl-3-hydroxy-5-methoxyphenoxy)acetamido)-1H-pyrazol-5-yl)cyclopentyl 2-methylpyrazolidine-1-carboxylate]
3.09 | 3470 |  | 37.4 | Cc1cc(O)c(C=O)c(OCC(=O)Nc2cc([C@H]3CC[C@@H](OC(=O)N4CCC4(C)C)C3)[nH]n2)c1 [Compound 162]
15 | > 10000 |  | 170 | CC(C)NC(=O)O[C@@H]1CC[C@H](c2cc(Nc3nccc4c(C=O)c(O)ccc34)n[nH]2)C1 [Compound 260, (1R,3S)-3-(3-((5-formyl-6-hydroxyisoquinolin-1-yl)amino)-1H-pyrazol-5-yl)cyclopentyl isopropylcarbamate]
1.18 | 5000 |  | 27.9 | CCCCNC(=O)O[C@@H]1CC[C@H](c2cc(NC(=O)COc3cc(OC)cc(O)c3C=O)n[nH]2)C1 [Compound 181]
3.17 | > 10000 |  | 29.3 | COCC[C@H](C)NC(=O)O[C@@H]1CC[C@H](c2cc(NC(=O)COc3cc(OC)cc(O)c3C=O)n[nH]2)C1 [Compound 177]
9.6 | 5880 |  | 301 | COc1cc(O)c(C=O)c(OCC(=O)Nc2cc([C@H]3CC[C@@H](OC(=O)Nc4ccccc4)C3)[nH]n2)c1 [Compound 164]
2.08 | 5600 |  | 54.1 | COc1cc(O)c(C=O)c(OCC(=O)Nc2cc([C@H]3CC[C@@H](OC(=O)NCC4CCC4)C3)[nH]n2)c1 [Compound 178]
2.45 | 3270 |  | 29.2 | CCC[C@H](C)NC(=O)O[C@@H]1CC[C@H](c2cc(NC(=O)COc3cc(OC)cc(O)c3C=O)n[nH]2)C1 [Compound 168]
1.18 | 2840 |  | 14.2 | COc1cc(O)c(C=O)c(OCC(=O)Nc2cc([C@H]3CC[C@@H](OC(=O)N4CCCCC4)C3)[nH]n2)c1 [Compound 234, (1R,3S)-3-(3-(2-(2-formyl-3-hydroxy-5-methoxyphenoxy)acetamido)-1H-pyrazol-5-yl)cyclopentyl piperidine-1-carboxylate]
1.48 | 5090 |  | 25.6 | CCN(CC)N(C)C(=O)O[C@@H]1CC[C@H](c2cc(NC(=O)COc3cc(OC)cc(O)c3C=O)n[nH]2)C1 [Compound 277, (1R,3S)-3-(3-(2-(2-formyl-3-hydroxy-5-methoxyphenoxy)acetamido)-1H-pyrazol-5-yl)cyclopentyl 2,2-diethyl-1-methylhydrazine-1-carboxylate]
6.24 | > 10000 |  | 66.1 | CCCNC(=O)O[C@H]1C[C@@H](c2cc(NC(=O)COc3cc(OC)cc(O)c3C=O)n[nH]2)C1 [Compound 182, (1s,3s)-3-(3-(2-(2-formyl-3-hydroxy-5-methoxyphenoxy)acetamido)-1H-pyrazol-5-yl)cyclobutyl propylcarbamate]

Reference: patent US20250289789A1, “REVERSIBLE LYSINE COVALENT MODIFIERS OF CDK2 AND USES THEREOF” (Terremoto Biosciences, Inc., priority 2023, published 2025)
